The values below come from ChEMBL document CHEMBL1137042, “Synthesis and cytotoxic activity of novel derivatives of 4'-demethylepipodophyllotoxin” (Bioorg Med Chem Lett, 2004).

One test relates to A549. In words: In vitro inhibitory concentration required against human lung carcinoma A-549 cell line was determined after 72 hrs of drug exposure using SRB method. The test is classed as functional, cell-based. As to conditions: A549, 72 h.
The subject of the next test is HL-60. In words: In vitro inhibitory concentration required against human leukemic HL-60 cell line was determined after 48 hrs of drug exposure using MTT method. The test is classed as functional, cell-based. The following applies: HL-60, 48 h.

For `COc1cc([C@@H]2c3cc4c(cc3[C@@H](NC(CSC)C(=O)OCCCn3cc(F)c(=O)[nH]c3=O)[C@H]3COC(=O)[C@H]23)OCO4)cc(OC)c1O` (stereo not given in full), the IC50 in the test with A549 was found to be 290 nM; in the test with HL-60, 990 nM.
Taken in the same sequence, the figures for `O=c1[nH]cc(F)c(=O)[nH]1` [FLUOROURACIL] were 50500 nM and 65300 nM.
In the same order, the values of `COc1cc([C@@H]2c3cc4c(cc3[C@@H](NC(C(=O)OCCCCn3cc(F)c(=O)[nH]c3=O)C(C)Cc3ccccc3)[C@H]3COC(=O)[C@H]23)OCO4)cc(OC)c1O` (stereo not given in full) are 740 nM and 530 nM.
In the same order, the values of `COc1cc([C@@H]2c3cc4c(cc3[C@@H](NC(C(=O)OCCCn3cc(F)c(=O)[nH]c3=O)C(C)Cc3ccccc3)[C@H]3COC(=O)[C@H]23)OCO4)cc(OC)c1O` (stereo not given in full) are 180 nM and 240 nM.
`COc1cc([C@@H]2c3cc4c(cc3[C@@H](NC(Cc3ccccc3)C(=O)OCCCCCn3cc(F)c(=O)[nH]c3=O)[C@H]3COC(=O)[C@H]23)OCO4)cc(OC)c1O` (stereo not given in full): the IC50 was under 10 nM in the test with A549 and 40 nM in the test on HL-60.
Taken in the same sequence, the figures for `COc1cc([C@@H]2c3cc4c(cc3[C@@H](NC(CSC)C(=O)OCCCCCn3cc(F)c(=O)[nH]c3=O)[C@H]3COC(=O)[C@H]23)OCO4)cc(OC)c1O` (stereo not given in full) were 230 nM and 40 nM.
Taken in the same sequence, the figures for `COc1cc([C@@H]2c3cc4c(cc3[C@@H](NC(Cc3ccccc3)C(=O)OCCCn3cc(F)c(=O)[nH]c3=O)[C@H]3COC(=O)[C@H]23)OCO4)cc(OC)c1O` (stereo not given in full) were 480 nM and 310 nM.
With `COc1cc([C@@H]2c3cc4c(cc3[C@@H](NC(C(=O)OCCCCCn3cc(F)c(=O)[nH]c3=O)C(C)Cc3ccccc3)[C@H]3COC(=O)[C@H]23)OCO4)cc(OC)c1O` (stereo not given in full), the results for the half-inhibitory concentration (IC50) with A549 and in the test on HL-60 were 530 nM and 300 nM, respectively.
As for `COc1cc([C@@H]2c3cc4c(cc3[C@@H](NC(CSC)C(=O)OCCCCn3cc(F)c(=O)[nH]c3=O)[C@H]3COC(=O)[C@H]23)OCO4)cc(OC)c1O` (stereo not given in full), the IC50 stood at 1870 nM with A549 and 50 nM in the test with HL-60.
In the same order, the values of `COc1cc([C@@H]2c3cc4c(cc3[C@@H](NC(Cc3ccccc3)C(=O)OCCCCn3cc(F)c(=O)[nH]c3=O)[C@H]3COC(=O)[C@H]23)OCO4)cc(OC)c1O` (stereo not given in full) are 300 nM and 420 nM.
